This is an account of results in US8710065B2, “Tricyclic inhibitors of kinases” (AbbVie Inc., priority 2011, dated 2014).

What is called Ki is a measure of affinity in units of concentration, obtained from inhibition or displacement.

For this experiment, the target named is T1, GST-tagged-Wee1 kinase (Homo sapiens, UniProt P30291).
T1 construct: purchased Carnabio (Carna Biosciences) 05-177
T1 sequence (P30291 whole entry): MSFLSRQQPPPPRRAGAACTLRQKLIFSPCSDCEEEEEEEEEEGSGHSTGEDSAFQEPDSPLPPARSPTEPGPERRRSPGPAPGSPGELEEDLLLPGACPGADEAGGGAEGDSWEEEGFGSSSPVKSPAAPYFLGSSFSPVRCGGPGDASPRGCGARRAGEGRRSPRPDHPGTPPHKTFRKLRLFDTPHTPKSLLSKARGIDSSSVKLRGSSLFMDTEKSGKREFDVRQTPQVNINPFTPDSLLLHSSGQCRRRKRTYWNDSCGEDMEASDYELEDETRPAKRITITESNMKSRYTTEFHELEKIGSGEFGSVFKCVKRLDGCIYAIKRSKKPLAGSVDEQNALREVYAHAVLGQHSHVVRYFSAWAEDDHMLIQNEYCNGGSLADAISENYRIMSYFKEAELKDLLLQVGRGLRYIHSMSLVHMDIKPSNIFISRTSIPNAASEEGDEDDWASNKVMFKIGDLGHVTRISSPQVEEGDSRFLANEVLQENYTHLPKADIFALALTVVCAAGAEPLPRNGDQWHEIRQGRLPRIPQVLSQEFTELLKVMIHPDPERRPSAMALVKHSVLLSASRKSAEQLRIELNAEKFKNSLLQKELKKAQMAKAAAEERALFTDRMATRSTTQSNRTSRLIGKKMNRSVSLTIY
Briefly: Wee1 time-resolved fluorescence equilibrium binding assay (displacement of Oregon Green-labeled ATP-competitive kinase probe). The following applies: read-out: Wee-1 inhibition (Ki). The protocol:
Wee1 kinase was assayed using a time-resolved fluorescence equilibrium binding assay monitoring displacement of a rapidly reversible Oregon Green-labeled ATP-competitive kinase probe (N-(2-(2-(2-(4-(4-(5-chloro-4-(2-(1-hydroxycyclobutyl)thiazol-5-yl)-1H-pyrrolo[2,3-b]pyridin-2-yl)phenyl)piperazin-1-yl)ethoxy)ethoxy)ethyl)-2′,7′-difluoro-3′,6′-dihydroxy-3-oxo-3H-spiro[isobenzofuran-1,9′-xanthene]-5-carboxamide) by competitive Wee1 inhibitors.
Table 1 depicts enzyme inhibition data (Ki) for exemplary compounds.
On to `Cc1ccccc1-n1c(=O)c2cnc(Nc3ccc(N4CCN(C)CC4)cc3)nc2n2ccnc12` [Example 14, 6-(2-methylphenyl)-2-{[4-(4-methylpiperazin-1-yl)phenyl]amino}imidazo[1,2-a]pyrimido[5,4-e]pyrimidin-5(6H)-one], for which the Ki was < 10 nM.

For `CN1CCN(c2ccc(Nc3ncc4c(=O)n(-c5ccccc5C(F)(F)F)c5nccn5c4n3)cc2)CC1` [Example 15, 2-{[4-(4-methylpiperazin-1-yl)phenyl]amino}-6-[2-(trifluoromethyl)phenyl]imidazo[1,2-a]pyrimido[5,4-e]pyrimidin-5(6H)-one], the Ki was 10 to 100 nM.

As for `COc1ccccc1-n1c(=O)c2cnc(Nc3ccc(N4CCN(C)CC4)cc3)nc2n2ccnc12` [Example 16, 6-(2-methoxyphenyl)-2-{[4-(4-methylpiperazin-1-yl)phenyl]amino}imidazo[1,2-a]pyrimido[5,4-e]pyrimidin-5(6H)-one], the Ki lay in the range of 10 to 100 nM.

As for `COc1cc(N2CCN(C)CC2)ccc1Nc1ncc2c(=O)n(-c3ccccc3Cl)c3nccn3c2n1` [Example 17, 6-(2-chlorophenyl)-2-{[2-methoxy-4-(4-methylpiperazin-1-yl)phenyl]amino}imidazo[1,2-a]pyrimido[5,4-e]pyrimidin-5(6H)-one], the Ki was > 100 nM.

As to `CN1CCCc2ccc(Nc3ncc4c(=O)n(-c5ccccc5Cl)c5nccn5c4n3)cc21` [Example 18, 6-(2-chlorophenyl)-2-[(1-methyl-1,2,3,4-tetrahydroquinolin-7-yl)amino]imidazo[1,2-a]pyrimido[5,4-e]pyrimidin-5(6H)-one], the Ki is 10 to 100 nM.

Consider `O=C1COc2ccc(Nc3ncc4c(=O)n(-c5ccccc5Cl)c5nccn5c4n3)cc2N1` [Example 19, 6-(2-chlorophenyl)-2-[(3-oxo-3,4-dihydro-2H-1,4-benzoxazin-6-yl)amino]imidazo[1,2-a]pyrimido[5,4-e]pyrimidin-5(6H)-one], for which the Ki was in the range of 10 to 100 nM.

For `CC(C)(C)OC(=O)N1CCc2ccc(Nc3ncc4c(=O)n(-c5ccccc5Cl)c5nccn5c4n3)cc2C1` [Example 20, tert-butyl 7-{[6-(2-chlorophenyl)-5-oxo-5,6-dihydroimidazo[1,2-a]pyrimido[5,4-e]pyrimidin-2-yl]amino}-3,4-dihydroisoquinoline-2(1H)-carboxylate], the inhibition constant (Ki) fell in the range of 10 to 100 nM.

In the case of `O=c1c2cnc(Nc3ccc4c(c3)CNCC4)nc2n2ccnc2n1-c1ccccc1Cl` [Example 21, 6-(2-chlorophenyl)-2-(1,2,3,4-tetrahydroisoquinolin-7-ylamino)imidazo[1,2-a]pyrimido[5,4-e]pyrimidin-5(6H)-one], the Ki is < 10 nM.

For the compound `Cc1cc(Nc2ncc3c(=O)n(-c4ccccc4Cl)c4nccn4c3n2)ccc1N1CCN(C)CC1` [Example 22, 6-(2-chlorophenyl)-2-{[3-methyl-4-(4-methylpiperazin-1-yl)phenyl]amino}imidazo[1,2-a]pyrimido[5,4-e]pyrimidin-5(6H)-one], the Ki was < 10 nM.

For `C=CCn1c(=O)c2cnc(Nc3ccc(N4CCN(C)CC4)cc3)nc2n2ccnc12` [Example 23, 6-allyl-2-{[4-(4-methylpiperazin-1-yl)phenyl]amino}imidazo[1,2-a]pyrimido[5,4-e]pyrimidin-5(6H)-one], the Ki is > 100 nM.

In the case of `CN1CCN(c2ccc(Nc3ncc4c(=O)n(C5CCCCC5)c5nccn5c4n3)cc2)CC1` [Example 24, 6-cyclohexyl-2-{[4-(4-methylpiperazin-1-yl)phenyl]amino}imidazo[1,2-a]pyrimido[5,4-e]pyrimidin-5(6H)-one], the Ki is > 100 nM.

As for `Cc1cnc2n(-c3ccccc3Cl)c(=O)c3cnc(Nc4ccc(N5CCN(C)CC5)cc4)nc3n12` [Example 25, 6-(2-chlorophenyl)-9-methyl-2-{[4-(4-methylpiperazin-1-yl)phenyl]amino}imidazo[1,2-a]pyrimido[5,4-e]pyrimidin-5(6H)-one], the Ki is < 10 nM.

`CN1CCN(c2ccc(Nc3ncc4c(=O)n(-c5ccccc5Cl)c5nncn5c4n3)cc2)CC1` [Example 26, 6-(2-chlorophenyl)-2-{[4-(4-methylpiperazin-1-yl)phenyl]amino}pyrimido[5,4-e][1,2,4]triazolo[4,3-a]pyrimidin-5(6H)-one]: the Ki was 10 to 100 nM.

For `Cc1nnc2n(-c3ccccc3Cl)c(=O)c3cnc(Nc4ccc(N5CCN(C)CC5)cc4)nc3n12` [Example 27, 6-(2-chlorophenyl)-9-methyl-2-{[4-(4-methylpiperazin-1-yl)phenyl]amino}pyrimido[5,4-e][1,2,4]triazolo[4,3-a]pyrimidin-5(6H)-one], the Ki lay within 10 to 100 nM.

As to `CN1CCN(c2ccc(Nc3ncc4c(=O)n(-c5ccccc5Cl)c5nnnn5c4n3)cc2)CC1` [Example 28, 4-(2-chlorophenyl)-8-{[4-(4-methylpiperazin-1-yl)phenyl]amino}pyrimido[5,4-e]tetrazolo[1,5-a]pyrimidin-5(4H)-one], the Ki was 10 to 100 nM.

Consider `CC(C)N1CCN(c2ccc(Nc3ncc4c(=O)n(-c5ccccc5Cl)c5nccn5c4n3)cc2)CC1` [Example 29, 6-(2-chlorophenyl)-2-({4-[4-(propan-2-yl)piperazin-1-yl]phenyl}amino)imidazo[1,2-a]pyrimido[5,4-e]pyrimidin-5(6H)-one], for which the Ki was < 10 nM.

Regarding `O=c1c2cnc(Nc3ccc(N4CCN(CC5CCCCC5)CC4)cc3)nc2n2ccnc2n1-c1ccccc1Cl` [Example 30, 6-(2-chlorophenyl)-2-({4-[4-(cyclohexylmethyl)piperazin-1-yl]phenyl}amino)imidazo[1,2-a]pyrimido[5,4-e]pyrimidin-5(6H)-one], the Ki is < 10 nM.

On to `N#Cc1cccc(CN2CCN(c3ccc(Nc4ncc5c(=O)n(-c6ccccc6Cl)c6nccn6c5n4)cc3)CC2)c1` [Example 31, 3-{[4-(4-{[6-(2-chlorophenyl)-5-oxo-5,6-dihydroimidazo[1,2-a]pyrimido[5,4-e]pyrimidin-2-yl]amino}phenyl)piperazin-1-yl]methyl}benzonitrile], for which the Ki lay within 10 to 100 nM.

For `CN1CCN(c2ccc(Nc3ncc4c(=O)n(-c5ccccc5Cl)c5nccn5c4n3)cc2Cl)CC1` [Example 32, 2-{[3-chloro-4-(4-methylpiperazin-1-yl)phenyl]amino}-6-(2-chlorophenyl)imidazo[1,2-a]pyrimido[5,4-e]pyrimidin-5(6H)-one], the Ki was < 10 nM.

As for `CC(C)N1CCN(c2ccc(Nc3ncc4c(=O)n(-c5ccccc5Cl)c5nccn5c4n3)cc2F)CC1` [Example 33, 6-(2-chlorophenyl)-2-({3-fluoro-4-[4-(propan-2-yl)piperazin-1-yl]phenyl}amino)imidazo[1,2-a]pyrimido[5,4-e]pyrimidin-5(6H)-one], the Ki is < 10 nM.

For `CN1CCc2ccc(Nc3ncc4c(=O)n(-c5ccccc5Cl)c5nccn5c4n3)cc2C1` [Example 34, 6-(2-chlorophenyl)-2-[(2-methyl-1,2,3,4-tetrahydroisoquinolin-7-yl)amino]imidazo[1,2-a]pyrimido[5,4-e]pyrimidin-5(6H)-one], the Ki is < 10 nM.

For `CN(C)CCOc1ccc(Nc2ncc3c(=O)n(-c4ccccc4Cl)c4nccn4c3n2)cc1` [Example 35, 6-(2-chlorophenyl)-2-({4-[2-(dimethylamino)ethoxy]phenyl}amino)imidazo[1,2-a]pyrimido[5,4-e]pyrimidin-5(6H)-one], the inhibition constant (Ki) was < 10 nM.

Consider `O=c1c2cnc(Nc3ccc(OCCN4CCOCC4)cc3)nc2n2ccnc2n1-c1ccccc1Cl` [Example 36, 6-(2-chlorophenyl)-2-({4-[2-(morpholin-4-yl)ethoxy]phenyl}amino)imidazo[1,2-a]pyrimido[5,4-e]pyrimidin-5(6H)-one], for which the Ki is 10 to 100 nM.

For `Cc1cc(Nc2ncc3c(=O)n(-c4ccccc4Cl)c4nccn4c3n2)ccc1N1CCCN(C)CC1` [Example 37, 6-(2-chlorophenyl)-2-{[3-methyl-4-(4-methyl-1,4-diazepan-1-yl)phenyl]amino}imidazo[1,2-a]pyrimido[5,4-e]pyrimidin-5(6H)-one], the Ki was < 10 nM.

In the case of `CN1CCC(c2ccc(Nc3ncc4c(=O)n(-c5ccccc5Cl)c5nccn5c4n3)cc2)CC1` [Example 38, 6-(2-chlorophenyl)-2-{[4-(1-methylpiperidin-4-yl)phenyl]amino}imidazo[1,2-a]pyrimido[5,4-e]pyrimidin-5(6H)-one], the Ki is < 10 nM.

As to `CN1CCN(c2ccc(Nc3ncc4c(=O)n(-c5ccccc5)c5nccn5c4n3)cc2)CC1` [Example 39, 2-{[4-(4-methylpiperazin-1-yl)phenyl]amino}-6-phenylimidazo[1,2-a]pyrimido[5,4-e]pyrimidin-5(6H)-one], the Ki is 10 to 100 nM.

On to `Cc1ccc(-n2c(=O)c3cnc(Nc4ccc(N5CCN(C)CC5)cc4)nc3n3ccnc23)c(Cl)c1` [Example 40, 6-(2-chloro-4-methylphenyl)-2-{[4-(4-methylpiperazin-1-yl)phenyl]amino}imidazo[1,2-a]pyrimido[5,4-e]pyrimidin-5(6H)-one], for which the Ki was < 10 nM.

With `O=C(NC1CCCCC1)c1ccc(Nc2ncc3c(=O)n(-c4ccccc4Cl)c4nccn4c3n2)cc1` [Example 41, 4-{[6-(2-chlorophenyl)-5-oxo-5,6-dihydroimidazo[1,2-a]pyrimido[5,4-e]pyrimidin-2-yl]amino}-N-cyclohexylbenzamide], the Ki lay in the range of 10 to 100 nM.

Regarding `CN1CCN(C(=O)c2ccc(Nc3ncc4c(=O)n(-c5ccccc5Cl)c5nccn5c4n3)cc2)CC1` [Example 42, 6-(2-chlorophenyl)-2-({4-[(4-methylpiperazin-1-yl)carbonyl]phenyl}amino)imidazo[1,2-a]pyrimido[5,4-e]pyrimidin-5(6H)-one], the Ki lay within 10 to 100 nM.

For `O=c1c2cnc(Nc3ccc(-c4cn[nH]c4)cc3)nc2n2ccnc2n1-c1ccccc1Cl` [Example 43, 6-(2-chlorophenyl)-2-{[4-(1H-pyrazol-4-yl)phenyl]amino}imidazo[1,2-a]pyrimido[5,4-e]pyrimidin-5(6H)-one], the Ki fell in the range of 10 to 100 nM.
